Reference: paper PMC6277434, “Discovery of a potent HMG-CoA reductase degrader that eliminates statin-induced reductase accumulation and lowers cholesterol” (Nature Communications, 2018)

What was measured:
HMGCR (TM1-8)-GFP [1] = target: T1, HMGCR (TM1-8)-GFP (Cricetulus griseus, UniProt P00347)
T1 sequence (P00347 1-346): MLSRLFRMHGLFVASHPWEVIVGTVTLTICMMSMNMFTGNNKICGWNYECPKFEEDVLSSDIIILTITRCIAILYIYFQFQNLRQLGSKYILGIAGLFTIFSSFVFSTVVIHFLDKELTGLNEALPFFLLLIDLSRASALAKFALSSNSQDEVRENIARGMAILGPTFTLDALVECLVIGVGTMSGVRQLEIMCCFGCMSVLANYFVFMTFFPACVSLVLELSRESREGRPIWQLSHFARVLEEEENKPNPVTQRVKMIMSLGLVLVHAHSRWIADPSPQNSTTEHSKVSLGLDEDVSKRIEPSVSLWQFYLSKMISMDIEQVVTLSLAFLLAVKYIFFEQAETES
Method: (§1) We thus generated a cell line stably expressing the transmembrane domain of HMGCR fused with green fluorescent protein (GFP) as a reporter (HMGCR (TM1-8)-GFP) (Fig. 2a).
(§2) CHO-7 cells were transfected with pCMV-HMGCR (TM1-8)-GFP using FuGENE HD. Twenty-four hours, cells were switched to medium B supplemented with 5% FBS and selected in the presence of 1 mg ml^−1 G418 for 2 weeks. Surviving colonies were isolated and confirmed for GFP expression by immunoblotting and immunofluorescence. The resulting CHO-7/HMGCR (TM1-8)-GFP stable cell line (CHG) was maintained in medium B supplemented with 5% FBS and 200 μg ml^−1 G418.
(§3) CHG cells were treated as described in figure legends. Briefly, cells were seeded at day 0 in 96-well black plate (3904, Corning) at a density of 1.5 × 10^4 cells per well, in medium B containing with 5% LPDS. Day 1, corresponding compounds were added as figure legends described in medium B with 5% LPDS, 1 μM lovastatin, 50 μM sodium mevalonate for 16 h. Then cells were fixed with 4% paraformaldehyde for 20 min, washed with PBS for three times, and stained with 2 μg ml^−1 Hoechst 33342.
(§4) The fluorescent images (GFP and Hoechst channel) were captured using an Operatta High-Content Imaging System (PerkinElmer) with a ×20 objective. The cytoplasmic GFP fluorescence was measured with the Harmony Software (PerkinElmer). Five random selected filed per well were captured, and about 3000 cells were used to determine the mean cytoplasmic GFP fluorescent intensity per cell after subtracting background GFP intensity. The average GFP intensity of DMSO-treated cells was defined as 100.

K89R/K248R HMGCR [2] = target: T2, K89R/K248R HMGCR (Cricetulus griseus, UniProt P00347, K248R/K89R); assay: Degradation of transfected K89R/K248R HMGCR in CHO-7 cells; type: cell-based; parameters: expressed in transfected cells; host or cells: CHO-7 (A20); details: transfected CHO-7 cells, 5 h
T2 sequence (P00347 1-887 K89R/K248R): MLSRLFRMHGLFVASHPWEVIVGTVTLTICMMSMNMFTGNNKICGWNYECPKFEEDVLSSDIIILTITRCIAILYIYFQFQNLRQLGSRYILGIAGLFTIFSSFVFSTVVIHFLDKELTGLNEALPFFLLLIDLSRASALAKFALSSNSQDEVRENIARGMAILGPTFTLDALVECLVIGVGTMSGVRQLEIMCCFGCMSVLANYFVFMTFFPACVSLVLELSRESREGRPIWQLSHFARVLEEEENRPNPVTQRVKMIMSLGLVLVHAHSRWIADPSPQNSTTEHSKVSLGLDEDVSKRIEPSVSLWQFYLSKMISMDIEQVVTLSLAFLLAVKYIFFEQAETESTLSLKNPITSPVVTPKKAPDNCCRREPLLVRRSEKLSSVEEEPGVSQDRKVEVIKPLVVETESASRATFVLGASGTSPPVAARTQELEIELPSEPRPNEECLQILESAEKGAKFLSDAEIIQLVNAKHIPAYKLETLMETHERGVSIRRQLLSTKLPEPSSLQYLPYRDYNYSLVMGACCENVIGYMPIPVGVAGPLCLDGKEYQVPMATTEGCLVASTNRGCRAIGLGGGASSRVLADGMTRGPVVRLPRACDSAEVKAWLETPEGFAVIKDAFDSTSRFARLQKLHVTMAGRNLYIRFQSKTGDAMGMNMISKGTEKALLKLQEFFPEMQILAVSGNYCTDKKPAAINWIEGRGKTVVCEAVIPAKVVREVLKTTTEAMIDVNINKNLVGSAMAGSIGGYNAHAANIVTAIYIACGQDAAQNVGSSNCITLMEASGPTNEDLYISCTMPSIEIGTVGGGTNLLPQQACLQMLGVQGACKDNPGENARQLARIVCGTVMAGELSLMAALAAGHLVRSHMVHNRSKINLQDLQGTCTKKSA
Method: HMGCR protein of DMSO-treated cells was defined as 100. […] Lysates were immunoprecipitated and pellets were probed for anti-ubiquitin (P4D1) and anti-HMGCR (A9). e CHO-7 cells were transfected with indicated plasmids and treated as in d. Lysates were immunoprecipitated with anti-Flag M2 beads, and pellets were probed for anti-ubiquitin (HA) and anti-HMGCR (Flag). f CHO-7 cells were transfected with indicated plasmids, then treated with Cmpd 81 for 5 h. […] Data are from three independent experiments and presented as mean ± SD. Source data are provided as a Source Data File.
Cells were harvested and homogenized in the RIPA buffer (50 mM Tris-HCl, pH 8.0, 150 mM NaCl, 2 mM MgCl2, 1.5% NP-40, 0.1% SDS, and 0.5% sodium deoxycholate) supplemented with protease cocktail inhibitor, 10 μM MG-132, 10 μg ml^−1 leupeptin and 1 mM phenylmethylsulfonyl fluoride. The protein concentrations of lysates were determined using BCA method (Beyotime). […] Western blot images were captured by Amersham Imager 600 (GE Healthcare), and integrated optical intensities of each band were quantified by Image-Pro Plus 6 software (Media Cybernetics). […]

HMGCR (TM1-8)-GFP [3] = target: T1, HMGCR (TM1-8)-GFP; assay: HMGCR (TM1-8)-GFP fluorescent assay (high-content imaging) in CHG cells; details: for Mean (HMGCR (TM1-8)-GFP signal relative to 0 μM = 100): Figure 4 source data
Method: as §1, §2, §3, §4

K89R/K248R HMGCR [4] = target: T2, K89R/K248R HMGCR; assay: Immunoblotting of overexpressed K89R/K248R HMGCR in Huh7 cells; type: cell-based; parameters: expressed in transfected cells; host or cells: Huh7 (A8); details: lovastatin
Method: Cells were harvested and homogenized in the RIPA buffer (50 mM Tris-HCl, pH 8.0, 150 mM NaCl, 2 mM MgCl2, 1.5% NP-40, 0.1% SDS, and 0.5% sodium deoxycholate) supplemented with protease cocktail inhibitor, 10 μM MG-132, 10 μg ml^−1 leupeptin and 1 mM phenylmethylsulfonyl fluoride. The protein concentrations of lysates were determined using BCA method (Beyotime). Samples were mixed with the membrane protein solubilization buffer (62.5 mM Tris-HCl, pH 6.8, 15% SDS, 8 M urea, 10% glycerol, and 100 mM DTT) plus the 4× loading buffer (150 mM Tris-HCl, pH 6.8, 12% SDS, 30% glycerol, 6% 2-mercaptoethanol, and 0.02% bromophenol blue) and incubated for 30 min at 37 °C. Proteins were resolved by SDS-PAGE and transferred to nitrocellulose membranes (GE Healthcare). Immnoblots were blocked with 5% non-fat milk in TBS containing 0.075% Tween-20 (TBST) and probed with indicated antibodies overnight at 4 °C. After washing in TBST for five times, blots were incubated with HRP-conjugated secondary antibodies for 2 h at room temperature. Immunoreactivity was developed with Clarity Western ECL chemiluminescent substrates (170–5061, Bio-Rad). Western blot images were captured by Amersham Imager 600 (GE Healthcare), and integrated optical intensities of each band were quantified by Image-Pro Plus 6 software (Media Cybernetics). […]
RT-qPCR. Quantifications of the relative mRNA levels of indicated SREBP target […]

Row | Structure (SMILES) | DC50 (HMGCR (TM1-8)-GFP [1]) [nM] | degradation of K89R/K248R HMGCR (K89R/K248R HMGCR [2]) | Mean (HMGCR (TM1-8)-GFP signal relative to 0 μM = 100) (HMGCR (TM1-8)-GFP [3]; compound 0.156 μM) | Mean (HMGCR (TM1-8)-GFP signal relative to 0 μM = 100) (HMGCR (TM1-8)-GFP [3]; compound 0.313 μM) | Mean (HMGCR (TM1-8)-GFP signal relative to 0 μM = 100) (HMGCR (TM1-8)-GFP [3]; compound 0.625 μM) | Mean (HMGCR (TM1-8)-GFP signal relative to 0 μM = 100) (HMGCR (TM1-8)-GFP [3]; compound 1.25 μM) | Mean (HMGCR (TM1-8)-GFP signal relative to 0 μM = 100) (HMGCR (TM1-8)-GFP [3]; compound 2.5 μM) | Mean (HMGCR (TM1-8)-GFP signal relative to 0 μM = 100) (HMGCR (TM1-8)-GFP [3]; compound 5 μM) | Mean (HMGCR (TM1-8)-GFP signal relative to 0 μM = 100) (HMGCR (TM1-8)-GFP [3]; compound 10 μM) | potency (EC50) relative to 24,25-DHL (HMGCR (TM1-8)-GFP [3]; more potent than 24,25-DHL) [fold] | potency (EC50) relative to cholesterol (HMGCR (TM1-8)-GFP [3]; more potent than cholesterol) | effect on ubiquitination-resistant K89R/K248R HMGCR protein level (K89R/K248R HMGCR [4])
1 | C=CCC(O)(CC=C)CCCC(C)C1CCC2C3C(O)C=C4C(C)(C)C(O)CCC4(C)C3CCC12C (stereo not drawn) [Cmpd 81] | 410 | blunted the effect | 80.6979 | 58.3802 | 35.2515 | 17.0524 | 14.0516 | 2.6212 | 2.9162 | ~4 | approximately 74 fold | –
2 | CC[C@H](C)C(=O)O[C@H]1C[C@@H](C)C=C2C=C[C@H](C)[C@H](CC[C@@H]3C[C@@H](O)CC(=O)O3)[C@H]21 [Lovastatin, lovastatin] | – | – | – | – | – | – | – | – | – | – | – | did not induce the protein level further increase
